Source: PubChem BioAssay (NCI)
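Growth conditions: 96-well plates. Treatment: test compound, 48 hours, 5 concentrations. Analysis: linear interpolation between bracketing concentrations; unreached endpoints set to highest concentration. TGI: concentration producing complete growth inhibition.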

Assays:
Assay in all cases: NCI anticancer screen, dose series, 48 h
786-0 renal = test system: 786-0 renal
A498 renal = test system: A498 renal
A549 NSCLC = test system: A549 NSCLC
ACHN renal = test system: ACHN renal
BT-549 breast = test system: BT-549 breast
CAKI-1 renal = test system: CAKI-1 renal
CCRF-CEM leukemia = test system: CCRF-CEM leukemia
COLO 205 colon = test system: COLO 205 colon
EKVX NSCLC = test system: EKVX NSCLC
HCC-2998 colon = test system: HCC-2998 colon
HCT-116 colon = test system: HCT-116 colon
HCT-15 colon = test system: HCT-15 colon
HL-60(TB) leukemia = test system: HL-60(TB) leukemia
HOP-62 NSCLC = test system: HOP-62 NSCLC
HOP-92 NSCLC = test system: HOP-92 NSCLC
HS 578T breast = test system: HS 578T breast
HT29 colon = test system: HT29 colon
IGROV1 ovarian = test system: IGROV1 ovarian
K-562 leukemia = test system: K-562 leukemia
KM12 colon = test system: KM12 colon
LOX IMVI melanoma = test system: LOX IMVI melanoma
M14 melanoma = test system: M14 melanoma
MALME-3M melanoma = test system: MALME-3M melanoma
MCF7 breast = test system: MCF7 breast
MDA-MB-231 breast = test system: MDA-MB-231 breast
MDA-MB-435 = test system: MDA-MB-435
MDA-N = test system: MDA-N
NCI-H226 lung = test system: NCI-H226 lung
NCI-H23 lung = test system: NCI-H23 lung
NCI-H460 lung = test system: NCI-H460 lung
NCI-H522 lung = test system: NCI-H522 lung
NCI/ADR-RES ovarian = test system: NCI/ADR-RES ovarian
OVCAR-3 ovarian = test system: OVCAR-3 ovarian
OVCAR-4 ovarian = test system: OVCAR-4 ovarian
OVCAR-5 ovarian = test system: OVCAR-5 ovarian
OVCAR-8 ovarian = test system: OVCAR-8 ovarian
PC-3 prostate = test system: PC-3 prostate
RPMI-8226 leukemia = test system: RPMI-8226 leukemia
RXF 393 renal = test system: RXF 393 renal
SF-268 CNS = test system: SF-268 CNS
SF-295 CNS = test system: SF-295 CNS
SF-539 CNS = test system: SF-539 CNS
SK-MEL-2 melanoma = test system: SK-MEL-2 melanoma
SK-MEL-28 melanoma = test system: SK-MEL-28 melanoma
SK-MEL-5 melanoma = test system: SK-MEL-5 melanoma
SK-OV-3 ovarian = test system: SK-OV-3 ovarian
SN12C renal = test system: SN12C renal
SNB-19 CNS = test system: SNB-19 CNS
SNB-75 CNS = test system: SNB-75 CNS
SR leukemia = test system: SR leukemia
SW-620 colon = test system: SW-620 colon
T-47D breast = test system: T-47D breast
TK-10 renal = test system: TK-10 renal
U251 CNS = test system: U251 CNS
UACC-257 melanoma = test system: UACC-257 melanoma
UACC-62 melanoma = test system: UACC-62 melanoma
UO-31 renal = test system: UO-31 renal
MOLT-4 leukemia = test system: MOLT-4 leukemia
DU-145 prostate = test system: DU-145 prostate

## O=C(O)c1ccc(Cc2ccccc2C(=O)O)cc1
786-0 renal
  TGI: > 100 µM
A498 renal
  TGI: > 100 µM
A549 NSCLC
  TGI: > 100 µM
ACHN renal
  TGI: > 100 µM
BT-549 breast
  TGI: > 100 µM
CAKI-1 renal
  TGI: > 100 µM
CCRF-CEM leukemia
  TGI: > 100 µM
COLO 205 colon
  TGI: > 100 µM
EKVX NSCLC
  TGI: > 100 µM
HCC-2998 colon
  TGI: > 100 µM
HCT-116 colon
  TGI: > 100 µM
HCT-15 colon
  TGI: > 100 µM
HL-60(TB) leukemia
  TGI: > 100 µM
HOP-62 NSCLC
  TGI: > 100 µM
HOP-92 NSCLC
  TGI: > 100 µM
HS 578T breast
  TGI: > 100 µM
HT29 colon
  TGI: > 100 µM
IGROV1 ovarian
  TGI: > 100 µM
K-562 leukemia
  TGI: > 100 µM
KM12 colon
  TGI: > 100 µM
LOX IMVI melanoma
  TGI: > 100 µM
M14 melanoma
  TGI: > 100 µM
MALME-3M melanoma
  TGI: > 100 µM
MCF7 breast
  TGI: > 100 µM
MDA-MB-231 breast
  TGI: > 100 µM
MDA-MB-435
  TGI: > 100 µM
MDA-N
  TGI: > 100 µM
NCI-H226 lung
  TGI: > 100 µM
NCI-H23 lung
  TGI: > 100 µM
NCI-H460 lung
  TGI: > 100 µM
NCI-H522 lung
  TGI: > 100 µM
NCI/ADR-RES ovarian
  TGI: > 100 µM
OVCAR-3 ovarian
  TGI: > 100 µM
OVCAR-4 ovarian
  TGI: > 100 µM
OVCAR-5 ovarian
  TGI: > 100 µM
OVCAR-8 ovarian
  TGI: > 100 µM
PC-3 prostate
  TGI: > 100 µM
RPMI-8226 leukemia
  TGI: > 100 µM
RXF 393 renal
  TGI: > 100 µM
SF-268 CNS
  TGI: > 100 µM
SF-295 CNS
  TGI: > 100 µM
SF-539 CNS
  TGI: > 100 µM
SK-MEL-2 melanoma
  TGI: > 100 µM
SK-MEL-28 melanoma
  TGI: > 100 µM
SK-MEL-5 melanoma
  TGI: > 100 µM
SK-OV-3 ovarian
  TGI: > 100 µM
SN12C renal
  TGI: > 100 µM
SNB-19 CNS
  TGI: > 100 µM
SNB-75 CNS
  TGI: > 100 µM
SR leukemia
  TGI: > 100 µM
SW-620 colon
  TGI: > 100 µM
T-47D breast
  TGI: > 100 µM
TK-10 renal
  TGI: > 100 µM
U251 CNS
  TGI: > 100 µM
UACC-257 melanoma
  TGI: > 100 µM
UACC-62 melanoma
  TGI: > 100 µM
UO-31 renal
  TGI: > 100 µM

## [N-]=[N+]=NC1=C(C(=O)c2ccccc2)C(=O)c2cccc3cccc1c23
786-0 renal
  TGI: > 100 µM
A549 NSCLC
  TGI: > 100 µM
ACHN renal
  TGI: > 100 µM
BT-549 breast
  TGI: > 100 µM
CAKI-1 renal
  TGI: > 100 µM
CCRF-CEM leukemia
  TGI: > 100 µM
COLO 205 colon
  TGI: > 100 µM
EKVX NSCLC
  TGI: 89.2 µM
HCT-116 colon
  TGI: > 100 µM
HOP-62 NSCLC
  TGI: 62 µM
HOP-92 NSCLC
  TGI: > 100 µM
HS 578T breast
  TGI: 61.4 µM
HT29 colon
  TGI: > 100 µM
IGROV1 ovarian
  TGI: 88.5 µM
K-562 leukemia
  TGI: > 100 µM
KM12 colon
  TGI: > 100 µM
M14 melanoma
  TGI: > 100 µM
MALME-3M melanoma
  TGI: > 100 µM
MCF7 breast
  TGI: > 100 µM
MDA-MB-231 breast
  TGI: 87.2 µM
MDA-MB-435
  TGI: > 100 µM
MDA-N
  TGI: > 100 µM
MOLT-4 leukemia
  TGI: > 100 µM
NCI-H226 lung
  TGI: > 100 µM
NCI-H23 lung
  TGI: > 100 µM
NCI-H522 lung
  TGI: 81.5 µM
NCI/ADR-RES ovarian
  TGI: > 100 µM
OVCAR-3 ovarian
  TGI: > 100 µM
OVCAR-4 ovarian
  TGI: > 100 µM
OVCAR-5 ovarian
  TGI: > 100 µM
OVCAR-8 ovarian
  TGI: > 100 µM
PC-3 prostate
  TGI: > 100 µM
RPMI-8226 leukemia
  TGI: > 100 µM
RXF 393 renal
  TGI: 71 µM
SF-268 CNS
  TGI: 36.2 µM
SF-295 CNS
  TGI: > 100 µM
SF-539 CNS
  TGI: > 100 µM
SK-MEL-2 melanoma
  TGI: 69.6 µM
SK-MEL-28 melanoma
  TGI: > 100 µM
SK-MEL-5 melanoma
  TGI: > 100 µM
SK-OV-3 ovarian
  TGI: > 100 µM
SN12C renal
  TGI: > 100 µM
SNB-19 CNS
  TGI: > 100 µM
SNB-75 CNS
  TGI: 33.4 µM
SR leukemia
  TGI: 77.6 µM
SW-620 colon
  TGI: > 100 µM
T-47D breast
  TGI: > 100 µM
TK-10 renal
  TGI: > 100 µM
U251 CNS
  TGI: > 100 µM
UACC-257 melanoma
  TGI: > 100 µM
UACC-62 melanoma
  TGI: > 100 µM
UO-31 renal
  TGI: > 100 µM

## O=[N+]([O-])c1ccc(N/N=C2\C=CCCC2)c([N+](=O)[O-])c1
786-0 renal
  TGI: > 100 µM
A549 NSCLC
  TGI: > 100 µM
ACHN renal
  TGI: > 100 µM
BT-549 breast
  TGI: > 100 µM
CAKI-1 renal
  TGI: > 100 µM
CCRF-CEM leukemia
  TGI: > 100 µM
COLO 205 colon
  TGI: > 100 µM
DU-145 prostate
  TGI: > 100 µM
EKVX NSCLC
  TGI: > 100 µM
HCT-116 colon
  TGI: > 100 µM
HCT-15 colon
  TGI: > 100 µM
HL-60(TB) leukemia
  TGI: > 100 µM
HOP-62 NSCLC
  TGI: > 100 µM
HOP-92 NSCLC
  TGI: > 100 µM
HS 578T breast
  TGI: > 100 µM
HT29 colon
  TGI: > 100 µM
IGROV1 ovarian
  TGI: > 100 µM
K-562 leukemia
  TGI: > 100 µM
KM12 colon
  TGI: > 100 µM
LOX IMVI melanoma
  TGI: > 100 µM
M14 melanoma
  TGI: > 100 µM
MALME-3M melanoma
  TGI: > 100 µM
MCF7 breast
  TGI: > 100 µM
MDA-MB-435
  TGI: > 100 µM
MDA-N
  TGI: > 100 µM
NCI-H226 lung
  TGI: > 100 µM
NCI-H23 lung
  TGI: > 100 µM
NCI-H460 lung
  TGI: > 100 µM
NCI-H522 lung
  TGI: > 100 µM
NCI/ADR-RES ovarian
  TGI: > 100 µM
OVCAR-3 ovarian
  TGI: > 100 µM
OVCAR-4 ovarian
  TGI: > 100 µM
OVCAR-5 ovarian
  TGI: > 100 µM
OVCAR-8 ovarian
  TGI: > 100 µM
PC-3 prostate
  TGI: > 100 µM
RPMI-8226 leukemia
  TGI: > 100 µM
SF-268 CNS
  TGI: > 100 µM
SF-295 CNS
  TGI: > 100 µM
SK-MEL-2 melanoma
  TGI: > 100 µM
SK-MEL-28 melanoma
  TGI: > 100 µM
SK-MEL-5 melanoma
  TGI: > 100 µM
SK-OV-3 ovarian
  TGI: > 100 µM
SN12C renal
  TGI: > 100 µM
SNB-19 CNS
  TGI: > 100 µM
SNB-75 CNS
  TGI: 73 µM
SR leukemia
  TGI: > 100 µM
SW-620 colon
  TGI: > 100 µM
T-47D breast
  TGI: > 100 µM
TK-10 renal
  TGI: > 100 µM
U251 CNS
  TGI: > 100 µM
UACC-257 melanoma
  TGI: > 100 µM
UACC-62 melanoma
  TGI: > 100 µM
UO-31 renal
  TGI: > 100 µM
